Measured values reported in ChEMBL document CHEMBL1201862, “PubChem BioAssay data set” (2004).
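Exposure lasted 48 hours, with cells grown in 96-well plates and compounds tested at five concentrations. Here, GI50 denotes the concentration required for 50% inhibition of growth.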 Calls of active or inactive are those of the source. Cut-off read from the data, not from the text of the source: active = GI50 up to about 1.1 µM and inactive = higher. Residues, ends and D or L forms follow the SMILES beside them.

Tests used:
Test in all cases: DTP human tumour cell line panel, 48 h
HOP-92 = test system: HOP-92
SNB-19 = test system: SNB-19
BT-549 = test system: BT-549
MOLT-4 = test system: MOLT-4
MDA-MB-231 = test system: MDA-MB-231
PC-3 = test system: PC-3
IGROV-1 = test system: IGROV-1
MCF7 = test system: MCF7
EKVX = test system: EKVX
SF-295 = test system: SF-295
COLO 205 = test system: COLO 205
Malme-3M = test system: Malme-3M
SF-268 = test system: SF-268
RXF 393 = test system: RXF 393
OVCAR-3 = test system: OVCAR-3
NCI-H522 = test system: NCI-H522
HCT-15 = test system: HCT-15
OVCAR-4 = test system: OVCAR-4
KM12 = test system: KM12
T47D = test system: T47D

O=C(CBr)c1ccc2cc(Br)c3ccccc3c2c1
GI50 (HOP-92): 20.9 µM (inactive)
GI50 (SNB-19): 31.9 µM (inactive)
GI50 (BT-549): 18.2 µM (inactive)
GI50 (MOLT-4): 4.25 µM (inactive)
GI50 (MDA-MB-231): 18.2 µM (inactive)
GI50 (PC-3): 21 µM (inactive)
GI50 (IGROV-1): 29.6 µM (inactive)
GI50 (MCF7): 26.4 µM (inactive)
GI50 (EKVX): 24.5 µM (inactive)
GI50 (SF-295): 24.4 µM (inactive)
GI50 (COLO 205): 24.1 µM (inactive)
GI50 (Malme-3M): 15.9 µM (inactive)
GI50 (SF-268): 20.3 µM (inactive)
GI50 (RXF 393): 18.3 µM (inactive)
GI50 (OVCAR-3): 20.6 µM (inactive)
GI50 (NCI-H522): 16.4 µM (inactive)
GI50 (HCT-15): 36.1 µM
GI50 (OVCAR-4): 25.3 µM (inactive)
GI50 (KM12): 17.8 µM (inactive)

Cn1cc(C2NC(=O)c3ccccc3N2)c2ccccc21 (configuration not stated)
GI50 (HOP-92): 22.3 µM (inactive)
GI50 (SNB-19): 1.55 µM (inactive)
GI50 (BT-549): > 100 µM (inactive)
GI50 (MOLT-4): 0.255 µM (active)
GI50 (MDA-MB-231): 2.14 µM (inactive)
GI50 (PC-3): 0.188 µM (active)
GI50 (IGROV-1): 1.51 µM (inactive)
GI50 (MCF7): 0.124 µM (active)
GI50 (EKVX): 0.998 µM (active)
GI50 (SF-295): 0.305 µM (active)
GI50 (COLO 205): 0.925 µM (active)
GI50 (Malme-3M): 0.316 µM (active)
GI50 (SF-268): 3.86 µM (inactive)
GI50 (RXF 393): 0.681 µM (active)
GI50 (OVCAR-3): 0.489 µM (active)
GI50 (NCI-H522): 0.695 µM (active)
GI50 (HCT-15): 0.191 µM
GI50 (OVCAR-4): 0.306 µM (active)
GI50 (KM12): 0.0612 µM (active)

NCCNCCNc1ccc(NCCNCCN)c2c1C(=O)c1c(O)ccc(O)c1C2=O
GI50 (HOP-92): > 100 µM (inactive)
GI50 (SNB-19): > 100 µM (inactive)
GI50 (BT-549): > 100 µM (inactive)
GI50 (MOLT-4): 14 µM (inactive)
GI50 (MDA-MB-231): > 100 µM (inactive)
GI50 (PC-3): > 100 µM (inactive)
GI50 (IGROV-1): > 100 µM (inactive)
GI50 (MCF7): 59.7 µM (inactive)
GI50 (EKVX): > 100 µM (inactive)
GI50 (SF-295): 99.3 µM (inactive)
GI50 (COLO 205): > 100 µM (inactive)
GI50 (Malme-3M): > 100 µM (inactive)
GI50 (SF-268): > 100 µM (inactive)
GI50 (RXF 393): > 100 µM (inactive)
GI50 (OVCAR-3): > 100 µM (inactive)
GI50 (NCI-H522): > 100 µM (inactive)
GI50 (HCT-15): > 100 µM
GI50 (OVCAR-4): > 100 µM (inactive)
GI50 (KM12): > 100 µM (inactive)

CCC(C)C(NC(=O)C(CCCCN)NC(=O)C(NC(=O)C(CCC(N)=O)NC(=O)C(N)CCCNC(=N)N)C(C)CC)C(=O)NC(Cc1c[nH]c2ccccc12)C(=O)NC(Cc1ccccc1)C(=O)NC(CCC(N)=O)C(=O)NC(CC(N)=O)C(=O)NC(CCCNC(=N)N)C(=O)NC(CCCNC(=N)N)C(=O)NC(CCSC)C(=O)NC(CCCCN)C(=O)NC(Cc1c[nH]c2ccccc12)C(=O)NC(CCCCN)C(=O)NC(CCCCN)C(=O)N1CCCC1C(=O)NC(C)C(=O)NC(CCCCN)C(=O)NC(CCCNC(=N)N)C(=O)NC(CCCCN)C(=O)NC(CC(C)C)C(=O)NC(Cc1ccccc1)C(=O)NCC(=O)O (configuration not stated) (H-RQIKIWFQNRRMKWKKPAKRKLFG-OH; configuration not given here)
GI50 (HOP-92): 9.64 µM (inactive)
GI50 (SNB-19): > 25 µM (inactive)
GI50 (BT-549): > 25 µM (inactive)
GI50 (MOLT-4): > 25 µM (inactive)
GI50 (MDA-MB-231): 10.5 µM (inactive)
GI50 (PC-3): > 25 µM (inactive)
GI50 (IGROV-1): > 25 µM (inactive)
GI50 (MCF7): > 25 µM (inactive)
GI50 (EKVX): > 25 µM (inactive)
GI50 (SF-295): > 25 µM (inactive)
GI50 (COLO 205): > 25 µM (inactive)
GI50 (Malme-3M): 6.75 µM (inactive)
GI50 (SF-268): 15.9 µM (inactive)
GI50 (RXF 393): > 25 µM (inactive)
GI50 (OVCAR-3): > 25 µM (inactive)
GI50 (NCI-H522): > 25 µM (inactive)
GI50 (HCT-15): > 25 µM
GI50 (OVCAR-4): > 25 µM (inactive)
GI50 (KM12): 9.31 µM (inactive)

Fc1ccc(-c2sc(-c3ccsc3)cc2Cc2ccsc2)cc1
GI50 (HOP-92): > 10 µM (inactive)
GI50 (MOLT-4): > 10 µM (inactive)
GI50 (MDA-MB-231): > 10 µM (inactive)
GI50 (PC-3): > 10 µM (inactive)
GI50 (IGROV-1): > 10 µM (inactive)
GI50 (MCF7): > 10 µM (inactive)
GI50 (EKVX): > 10 µM (inactive)
GI50 (SF-295): > 10 µM (inactive)
GI50 (COLO 205): > 10 µM (inactive)
GI50 (Malme-3M): > 10 µM (inactive)
GI50 (T47D): > 10 µM (inactive)
GI50 (SF-268): > 10 µM (inactive)
GI50 (RXF 393): > 10 µM (inactive)
GI50 (HCT-15): > 10 µM
GI50 (OVCAR-4): > 10 µM (inactive)
GI50 (KM12): > 10 µM (inactive)

c1nc(OCC2CCCCC2)c2nc[nH]c2n1
GI50 (HOP-92): 66.7 µM (inactive)
GI50 (SNB-19): > 100 µM (inactive)
GI50 (BT-549): > 100 µM (inactive)
GI50 (MOLT-4): 31.6 µM (inactive)
GI50 (MDA-MB-231): 63.2 µM (inactive)
GI50 (PC-3): 85.9 µM (inactive)
GI50 (IGROV-1): 46.5 µM (inactive)
GI50 (EKVX): 53 µM (inactive)
GI50 (SF-295): 50.9 µM (inactive)
GI50 (COLO 205): 32 µM (inactive)
GI50 (Malme-3M): 70.5 µM (inactive)
GI50 (SF-268): 44.5 µM (inactive)
GI50 (RXF 393): 60.7 µM (inactive)
GI50 (OVCAR-3): 53.1 µM (inactive)
GI50 (NCI-H522): 44.4 µM (inactive)
GI50 (HCT-15): 46.3 µM
GI50 (OVCAR-4): > 100 µM (inactive)
GI50 (KM12): 54.1 µM (inactive)

CSC(SC)=C(C(=O)O)P(=O)(O)O
GI50 (HOP-92): > 100 µM (inactive)
GI50 (SNB-19): > 100 µM (inactive)
GI50 (MOLT-4): > 100 µM (inactive)
GI50 (MDA-MB-231): > 100 µM (inactive)
GI50 (PC-3): > 100 µM (inactive)
GI50 (IGROV-1): > 100 µM (inactive)
GI50 (MCF7): > 100 µM (inactive)
GI50 (EKVX): > 100 µM (inactive)
GI50 (SF-295): > 100 µM (inactive)
GI50 (COLO 205): > 100 µM (inactive)
GI50 (Malme-3M): > 100 µM (inactive)
GI50 (T47D): > 100 µM (inactive)
GI50 (SF-268): > 100 µM (inactive)
GI50 (RXF 393): > 100 µM (inactive)
GI50 (OVCAR-3): > 100 µM (inactive)
GI50 (NCI-H522): > 100 µM (inactive)
GI50 (HCT-15): > 100 µM
GI50 (OVCAR-4): > 100 µM (inactive)
GI50 (KM12): > 100 µM (inactive)

Cc1ccc2c(c1C)CC1(Cc3c(C)ccc(C)c3C1=O)C2=O (configuration not stated)
GI50 (HOP-92): > 100 µM (inactive)
GI50 (SNB-19): > 100 µM (inactive)
GI50 (BT-549): > 100 µM (inactive)
GI50 (MOLT-4): > 100 µM (inactive)
GI50 (MDA-MB-231): > 100 µM (inactive)
GI50 (IGROV-1): > 100 µM (inactive)
GI50 (MCF7): > 100 µM (inactive)
GI50 (EKVX): > 100 µM (inactive)
GI50 (SF-295): > 100 µM (inactive)
GI50 (COLO 205): > 100 µM (inactive)
GI50 (Malme-3M): > 100 µM (inactive)
GI50 (T47D): > 100 µM (inactive)
GI50 (SF-268): > 100 µM (inactive)
GI50 (RXF 393): > 100 µM (inactive)
GI50 (NCI-H522): > 100 µM (inactive)
GI50 (HCT-15): > 100 µM
GI50 (OVCAR-4): > 100 µM (inactive)
GI50 (KM12): > 100 µM (inactive)

COc1ccc(C=C2C(C)=NN(c3cccc(Cl)c3)C23C(Cl)C(=O)N3c2nc3ccccc3s2)cc1 (configuration not stated)
GI50 (HOP-92): 9.02 µM (inactive)
GI50 (MOLT-4): 15.9 µM (inactive)
GI50 (MDA-MB-231): 12.9 µM (inactive)
GI50 (PC-3): 17.2 µM (inactive)
GI50 (IGROV-1): 16.4 µM (inactive)
GI50 (MCF7): 17.5 µM (inactive)
GI50 (EKVX): 27.3 µM (inactive)
GI50 (SF-295): 22.1 µM (inactive)
GI50 (T47D): 24.6 µM (inactive)
GI50 (SF-268): 4.89 µM (inactive)
GI50 (RXF 393): 12.7 µM (inactive)
GI50 (OVCAR-3): 19.4 µM (inactive)
GI50 (NCI-H522): 8.53 µM (inactive)
GI50 (HCT-15): 16.8 µM
GI50 (OVCAR-4): 23.9 µM (inactive)
GI50 (KM12): 13.6 µM (inactive)

COC(=O)C(C)(/N=C/c1ccccc1)c1ccccc1 (configuration not stated)
GI50 (HOP-92): > 100 µM (inactive)
GI50 (SNB-19): > 100 µM (inactive)
GI50 (MOLT-4): > 100 µM (inactive)
GI50 (MDA-MB-231): > 100 µM (inactive)
GI50 (PC-3): > 100 µM (inactive)
GI50 (IGROV-1): > 100 µM (inactive)
GI50 (MCF7): > 100 µM (inactive)
GI50 (EKVX): > 100 µM (inactive)
GI50 (SF-295): > 100 µM (inactive)
GI50 (COLO 205): > 100 µM (inactive)
GI50 (Malme-3M): > 100 µM (inactive)
GI50 (T47D): > 100 µM (inactive)
GI50 (SF-268): > 100 µM (inactive)
GI50 (RXF 393): > 100 µM (inactive)
GI50 (OVCAR-3): > 100 µM (inactive)
GI50 (NCI-H522): > 100 µM (inactive)
GI50 (HCT-15): > 100 µM
GI50 (OVCAR-4): > 100 µM (inactive)
GI50 (KM12): > 100 µM (inactive)
